In general, IC50 refers to the concentration at which inhibition is half-maximal.

T1 sequence (P41597 whole entry): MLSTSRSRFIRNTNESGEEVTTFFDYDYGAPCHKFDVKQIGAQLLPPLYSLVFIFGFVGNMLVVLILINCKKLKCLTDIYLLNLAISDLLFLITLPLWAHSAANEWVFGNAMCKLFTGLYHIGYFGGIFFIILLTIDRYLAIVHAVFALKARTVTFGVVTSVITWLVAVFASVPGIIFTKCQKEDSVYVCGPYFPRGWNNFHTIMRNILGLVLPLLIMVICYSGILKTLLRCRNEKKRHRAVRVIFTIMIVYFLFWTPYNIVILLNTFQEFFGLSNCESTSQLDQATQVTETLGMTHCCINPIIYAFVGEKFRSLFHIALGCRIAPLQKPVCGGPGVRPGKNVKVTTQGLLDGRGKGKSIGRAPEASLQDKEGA

One assay addresses T1, C-C chemokine receptor type 2 (Homo sapiens, UniProt P41597). In words: Antagonist activity at CCR2 receptor expressed in THP1 cells assessed as inhibition of MCP-1-induced chemotaxis.
For `O=C(/C=C/c1cc(F)c(F)c(F)c1)N1CCC([C@@H](CO)N2CCC(c3c[nH]c4ccccc34)CC2)CC1`, the 50% inhibitory concentration (IC50) came to 3.5 nM.

The target in the next assay is T1, C-C chemokine receptor type 2. In words: Binding affinity at human CCR2 receptor.
Take `O=C(/C=C/c1cc(F)c(F)c(F)c1)N1CCC([C@@H](CO)N2CCC(c3c[nH]c4ccccc34)CC2)CC1`: the half-inhibitory concentration (IC50) was 2.4 nM.

Turning to `CC(=O)Nc1ccc2[nH]cc(C3CCN(C(CO)C4CCN(C(=O)/C=C/c5cc(F)c(F)c(F)c5)CC4)CC3)c2c1` (configuration not stated), the IC50 was 2 nM.

As for `CN(C)CC(C1CCN(C(=O)/C=C/c2cc(F)c(F)c(F)c2)CC1)N1CCC(c2c[nH]c3ccccc23)CC1` (configuration not stated), the IC50 came to 4800 nM.

`O=C(/C=C/c1cccc(Br)c1)N1CCC(C(CO)N2CCC(c3c[nH]c4ccccc34)CC2)CC1` (configuration not stated) yielded an IC50 of 9 nM.

As for `O=C(/C=C/c1cc(F)c(F)c(F)c1)N1CCC([C@H](CO)N2CCC(c3c[nH]c4ccccc34)CC2)CC1`, the half-inhibitory concentration (IC50) stood at 10 nM.

`O=C(/C=C/c1ccc(F)c(Br)c1)N1CCC(C(CO)N2CCC(c3c[nH]c4ccccc34)CC2)CC1` (configuration not stated) gave an IC50 of 2 nM.

For the molecule `COC(=O)c1ccc2[nH]cc(C3CCN(C(CO)C4CCN(C(=O)/C=C/c5cc(F)c(F)c(F)c5)CC4)CC3)c2c1` (configuration not stated), the half-maximal inhibitory concentration (IC50) was determined as 20 nM.

`COC(=O)c1ccc2[nH]cc(C3CCN(C(CO)C4CCN(C(=O)Nc5ccc(Cl)c(Cl)c5)CC4)CC3)c2c1` (configuration not stated) displayed a 50% inhibitory concentration (IC50) of 50 nM.

The molecule `O=C(O)c1ccc2[nH]cc(C3CCN(C(CO)C4CCN(C(=O)Nc5ccc(Cl)c(Cl)c5)CC4)CC3)c2c1` (configuration not stated) had a half-inhibitory concentration (IC50) of 10 nM.

With `Nc1ccc2[nH]cc(C3CCN(C(CO)C4CCN(C(=O)/C=C/c5cc(F)c(F)c(F)c5)CC4)CC3)c2c1` (configuration not stated), the IC50 was 1 nM.

`O=C(/C=C/c1cc(F)c(F)c(F)c1)N1CCC(C(CO)N2CCC(c3c[nH]c4ccc(O)cc34)CC2)CC1` (configuration not stated): the IC50 came out at 1 nM.
